The text below walks through data of US20250270200A1, “CTPS1 INHIBITORS AND USES THEREOF” (Nimbus Clotho, Inc., priority 2022, published 2025).

Counter-ions that a name gives are not always drawn.

The term IC50 denotes the point on the concentration scale where inhibition reaches its midpoint.

The target in the first assay is T1, human CTPS1 (Homo sapiens, UniProt P17812).
T1 sequence (P17812 1-591): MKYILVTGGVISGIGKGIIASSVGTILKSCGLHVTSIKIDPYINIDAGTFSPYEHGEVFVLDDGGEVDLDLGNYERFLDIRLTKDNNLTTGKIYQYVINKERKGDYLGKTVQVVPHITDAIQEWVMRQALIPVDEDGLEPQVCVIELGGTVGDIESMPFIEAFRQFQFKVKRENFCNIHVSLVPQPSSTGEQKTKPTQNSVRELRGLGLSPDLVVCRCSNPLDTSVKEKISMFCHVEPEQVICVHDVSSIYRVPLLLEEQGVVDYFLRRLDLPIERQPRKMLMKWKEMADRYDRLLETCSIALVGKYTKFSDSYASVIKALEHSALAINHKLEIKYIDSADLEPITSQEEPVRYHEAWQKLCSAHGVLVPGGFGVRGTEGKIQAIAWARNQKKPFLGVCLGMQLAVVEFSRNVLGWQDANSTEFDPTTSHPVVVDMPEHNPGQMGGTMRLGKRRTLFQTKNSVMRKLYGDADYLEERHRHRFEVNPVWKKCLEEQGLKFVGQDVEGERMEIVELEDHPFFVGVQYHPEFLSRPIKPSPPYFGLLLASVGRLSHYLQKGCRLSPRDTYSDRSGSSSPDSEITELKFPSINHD
As to the kind of experiment: ADP-Glo assay, human CTPS1 enzyme inhibition. The note with it: wild-type human CTPS1 25 nM; ATP 120 μM, UTP 160 μM, GTP 60 μM, L-glutamine 100 μM; 25 degrees C.; read-out: ADP-Glo_WT_hCTPS1—25 nM_IC50 (IC50). The format is biochemical. An outline of the steps:
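ADP-Glo luminescence quantified ADP produced by 25 nM purified human CTPS1 (full length, FLAG-His tagged) at 25° C within the linear phase. Final substrates: ATP 120 μM, UTP 160 μM, GTP 60 μM, L-glutamine 100 μM; 1% DMSO; pH 7.4 HEPES buffer with Mg2+, KCl, DTT. Compound pre-incubated with enzyme 10 min, then with ATP/UTP 10 min.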
(ADP-Glo first removes unused ATP, then detects ADP through luciferase.)
For the compound `CCOc1cncc(-c2cnc(C(=O)N[C@H](c3cccc(NS(=O)(=O)C(F)F)c3)[C@@H](C)CN3CCCCC3)s2)n1` (single isomer, unassigned) [II-14], the IC50 lay in the range of 50 to 100 nM.
The same measure, in the same setting: the value for `O=C(N[C@H](c1nccc(NS(=O)(=O)C2CC2)c1F)[C@H]1CCOC1)c1ncc(-c2cnn3ccc(Cl)cc23)s1` (single isomer, unassigned) [II-3] was 5 to 25 nM.

Still in this assay, the particulars now being: wild-type human CTPS1, 25 nM enzyme; ADP-Glo; read-out: ADP-Glo_WT_hCTPS1—25 nM_IC50 (IC50).
In the case of `CCOc1cncc(-c2cnc(C(=O)N[C@@H](c3cc(NS(=O)(=O)C4CC4)ccn3)[C@H](C)OC)s2)n1` [I-44, N-((1S,2S)-1-(4-(cyclopropanesulfonamido)pyridin-2-yl)-2-methoxypropyl)-5-(6-ethoxypyrazin-2-yl)thiazole-2-carboxamide], the IC50 is 5 to 25 nM.
On the same count and under the same terms, the value for `CCOc1cncc(-c2cnc(C(=O)N[C@H](c3cc(NS(=O)(=O)C4CC4)ccn3)[C@@H]3C[C@@H]4CC[C@H]3O4)s2)n1` [I-82, N-((S)-((1R,2S,4S)-7-oxabicyclo[2.2.1]heptan-2-yl)(4-(cyclopropanesulfonamido)pyridin-2-yl)methyl)-5-(6-ethoxypyrazin-2-yl)thiazole-2-carboxamide] was at most 5 nM; that for `CCOc1cncc(-c2cnc(C(=O)N[C@H](CN3C[C@H]4C[C@@H]3CO4)c3cncc(NS(=O)(=O)C4CC4)n3)s2)n1` [I-253, N-((R)-2-((1R,4R)-2-oxa-5-azabicyclo[2.2.1]heptan-5-yl)-1-(6-(cyclopropanesulfonamido)pyrazin-2-yl)ethyl)-5-(6-ethoxypyrazin-2-yl)thiazole-2-carboxamide, formic acid salt] was 50 to 100 nM; that for `CCOc1cncc(-c2cnc(C(=O)N[C@@H](C[C@H]3COCCN3C)c3cccc(NS(=O)(=O)C(F)F)c3)s2)n1` [I-192, N-((S)-1-(3-((difluoromethyl)sulfonamido)phenyl)-2-((S)-4-methylmorpholin-3-yl)ethyl)-5-(6-ethoxypyrazin-2-yl)thiazole-2-carboxamide] was 5 to 25 nM.
Still for that read-out and setting: the value for `CCOc1cncc(-c2cnc(C(=O)N[C@@H](c3cc(NS(=O)(=O)C4CC4)ccn3)[C@H](C)N3C[C@H]4C[C@@H]3CO4)s2)n1` [I-168, N-((1R,2S)-2-((1R,4R)-2-oxa-5-azabicyclo[2.2.1]heptan-5-yl)-1-(4-(cyclopropanesulfonamido)pyridin-2-yl)propyl)-5-(6-ethoxypyrazin-2-yl)thiazole-2-carboxamide] was 5 to 25 nM; that for `CCOc1cncc(-c2cnc(C(=O)N[C@@H](c3cc(NS(=O)(=O)C4CC4)ccn3)[C@@H]3CCCO3)s2)n1` [I-61, N-((S)-(4-(cyclopropanesulfonamido)pyridin-2-yl)((S)-tetrahydrofuran-2-yl)methyl)-5-(6-ethoxypyrazin-2-yl)thiazole-2-carboxamide] was 5 to 25 nM; that for `CCOc1cncc(-c2cnc(C(=O)N[C@H](c3cc(NS(=O)(=O)C4CC4)ccn3)[C@@H](C)O)s2)n1` [I-264, N-((1R,2R)-1-(4-(cyclopropanesulfonamido)pyridin-2-yl)-2-hydroxypropyl)-5-(6-ethoxypyrazin-2-yl)thiazole-2-carboxamide] was 5 to 25 nM.
Still for that read-out and setting: the value for `CCOc1cncc(-c2cnc(C(=O)N[C@H](CN3C[C@H]4COC[C@H]4C3)c3cc(NS(=O)(=O)C4CC4)ccn3)s2)n1` (single isomer, unassigned) [I-31] was 5 to 25 nM.
Turning to `CCOc1cncc(-c2cnc(C(=O)N[C@H](CN3CCCC3=O)c3cc(NS(=O)(=O)C4CC4)ccn3)s2)n1` [I-137, (R)-N-(1-(4-(cyclopropanesulfonamido)pyridin-2-yl)-2-(2-oxopyrrolidin-1-yl)ethyl)-5-(6-ethoxypyrazin-2-yl)thiazole-2-carboxamide], the IC50 lay within 25 to 50 nM.
Take `CCOc1cncc(-c2cnc(C(=O)N[C@H](c3cccc(NS(=O)(=O)C(F)F)c3)C(C)(C)O)s2)n1` [I-291, (R)-N-(1-(3-((difluoromethyl)sulfonamido)phenyl)-2-hydroxy-2-methylpropyl)-5-(6-ethoxypyrazin-2-yl)thiazole-2-carboxamide]: the IC50 lay within 5 to 25 nM.
On the same count and under the same terms, the value for `CCOc1cncc(-c2cnc(C(=O)N[C@H](c3cc(NS(=O)(=O)C4CC4)ccn3)[C@H](C)COC)s2)n1` [I-237, N-((1S,2S)-1-(4-(cyclopropanesulfonamido)pyridin-2-yl)-3-methoxy-2-methylpropyl)-5-(6-ethoxypyrazin-2-yl)thiazole-2-carboxamide] was at most 5 nM; that for `CCOc1cncc(-c2cnc(C(=O)NC(c3cc(NS(=O)(=O)C4CC4)ccn3)C3CN(C)CCO3)s2)n1` (single isomer, unassigned) [I-105, N-((4-(cyclopropanesulfonamido)pyridin-2-yl)(4-methylmorpholin-2-yl)methyl)-5-(6-ethoxypyrazin-2-yl)thiazole-2-carboxamide] was 5 to 25 nM; that for `CCOc1cncc(-c2cnc(C(=O)N[C@H](c3cccc(NS(=O)(=O)C(F)F)c3)[C@@H](C)CO)s2)n1` [I-243, N-((1S,2R)-1-(3-((difluoromethyl)sulfonamido)phenyl)-3-hydroxy-2-methylpropyl)-5-(6-ethoxypyrazin-2-yl)thiazole-2-carboxamide] was 5 to 25 nM.
On the same count and under the same terms, the value for `CN(C)C[C@H](NC(=O)c1ncc(-c2cnn3ccc(Cl)cc23)s1)c1cc(NS(=O)(=O)C2CC2)ccn1` [I-164, (S)-5-(5-chloropyrazolo[1,5-a]pyridin-3-yl)-N-(1-(4-(cyclopropanesulfonamido)pyridin-2-yl)-2-(dimethylamino)ethyl)thiazole-2-carboxamide, formic acid salt] was 50 to 100 nM.
Regarding `CCOc1cncc(-c2cnc(C(=O)N[C@H](c3cc(NS(=O)(=O)C4CC4)ccn3)[C@H]3CCN(CCF)C3)s2)n1` [I-107, N-((S)-(4-(cyclopropanesulfonamido)pyridin-2-yl)((S)-1-(2-fluoroethyl)pyrrolidin-3-yl)methyl)-5-(6-ethoxypyrazin-2-yl)thiazole-2-carboxamide], the IC50 is 50 to 100 nM.
On the same count and under the same terms, the value for `O=C(N[C@@H](c1cc(NS(=O)(=O)C2CC2)ccn1)[C@@H]1COCCO1)c1ncc(-c2cnn3ccc(Cl)cc23)s1` [I-79, 5-(5-chloropyrazolo[1,5-a]pyridin-3-yl)-N-((S)-(4-(cyclopropanesulfonamido)pyridin-2-yl)((R)-1,4-dioxan-2-yl)methyl)thiazole-2-carboxamide] was 5 to 25 nM; that for `CC(C)(O)[C@@H](NC(=O)c1ncc(-c2cnn3ccc(Cl)cc23)s1)c1cc(NS(=O)(=O)C2CC2)ccn1` [I-278, (S)-5-(5-chloropyrazolo[1,5-a]pyridin-3-yl)-N-(1-(4-(cyclopropanesulfonamido)pyridin-2-yl)-2-hydroxy-2-methylpropyl)thiazole-2-carboxamide] was 50 to 100 nM.
The same measure, in the same setting: the value for `CCOc1cncc(-c2cnc(C(=O)NC(C[C@@H]3COCCN3C)c3cc(NS(=O)(=O)C4CC4)ccn3)s2)n1` (single isomer, unassigned) [I-103] was over 100 nM.
For the compound `O=C(N[C@@H](c1cccc(NS(=O)(=O)C(F)F)c1)C1CCOCC1)c1ncc(-c2cnn3ccc(Cl)cc23)s1` [I-197, (R)-5-(5-chloropyrazolo[1,5-a]pyridin-3-yl)-N-((3-((difluoromethyl)sulfonamido)phenyl)(tetrahydro-2H-pyran-4-yl)methyl)thiazole-2-carboxamide], the IC50 is 5 to 25 nM.
The same measure, in the same setting: the value for `CCOc1cncc(-c2cnc(C(=O)N[C@H](CC(C)(C)N(C)C)c3cc(NS(=O)(=O)C4CC4)ccn3)s2)n1` [I-49, (R)-N-(1-(4-(cyclopropanesulfonamido)pyridin-2-yl)-3-(dimethylamino)-3-methylbutyl)-5-(6-ethoxypyrazin-2-yl)thiazole-2-carboxamide] was 50 to 100 nM; that for `CCOc1cncc(-c2cnc(C(=O)N[C@@]3(c4cc(NS(=O)(=O)C5CC5)ccn4)CCOC3)s2)n1` (single isomer, unassigned) [I-71] was 5 to 25 nM.
On the same count and under the same terms, the value for `CCOc1cncc(-c2cnc(C(=O)N[C@@H](c3cc(NS(=O)(=O)C4CC4)ccn3)[C@H](C)CO)s2)n1` [I-227, N-((1R,2S)-1-(4-(cyclopropanesulfonamido)pyridin-2-yl)-3-hydroxy-2-methylpropyl)-5-(6-ethoxypyrazin-2-yl)thiazole-2-carboxamide] was at most 5 nM; that for `CCOc1cncc(-c2cnc(C(=O)N[C@H](CF)c3cc(NS(=O)(=O)C4CC4)ccn3)s2)n1` [I-161, (S)-N-(1-(4-(cyclopropanesulfonamido)pyridin-2-yl)-2-fluoroethyl)-5-(6-ethoxypyrazin-2-yl)thiazole-2-carboxamide] was at most 5 nM.
With `CCOc1cncc(-c2cnc(C(=O)N[C@H](c3cccc(NS(=O)(=O)C(F)F)c3)C3CCOCC3)s2)n1` [I-194, (S)-N-((3-((difluoromethyl)sulfonamido)phenyl)(tetrahydro-2H-pyran-4-yl)methyl)-5-(6-ethoxypyrazin-2-yl)thiazole-2-], the IC50 lay within 5 to 25 nM.
